Literature values, collected in patent US8273362B2, “Ophthalmic emulsions containing prostaglandins” (Novagali Pharma S.A., priority 2004, dated 2012).

Settings: at 0.3% w/v

With `CCCCCCCC/C=C\CCCCCCCCN` [oleylamine] as the compound, how does the “Safety for ocular administration” value read?
Its value is “safe”.

Which “Safety for ocular administration” value does the source give for `CCCCCCCCCCCCCCCCCCN` [stearylamine] here?
The value was “safe”.

Settings: ophthalmic preparations

For benzalkonium chloride [BAK], which “Toxicity of long term use” value is on record?
Its value is “important toxicity”.

Settings: not given

Which Solubility in water does the source give for `CCCCC[C@H](O)/C=C/[C@H]1[C@H](O)CC(=O)[C@H]1C/C=C\CCCC(=O)O` [8-isoprostaglandinE2] here?
The Solubility in water was “almost insoluble in water”.

With `CCNC(=O)CCC/C=C\C[C@@H]1[C@@H](/C=C/[C@@H](O)CCc2ccccc2)[C@H](O)C[C@@H]1O` [Bimatoprost, bimatoprost] as the compound, how does the Solubility in water read?
Its Solubility in water is “almost insoluble in water”.

Which Solubility in water does the source give for `CC(C)OC(=O)CCC/C=C\C[C@@H]1[C@@H](CC[C@@H](O)CCc2ccccc2)[C@H](O)C[C@@H]1O` [Latanoprost, latanoprost] here?
Its Solubility in water is “almost insoluble in water”.

Which Solubility in water does the source give for `CC(C)OC(=O)CCC/C=C\C[C@@H]1[C@@H](/C=C/[C@@H](O)COc2cccc(C(F)(F)F)c2)[C@H](O)C[C@@H]1O` [Travoprost, travoprost] here?
Its Solubility in water is “almost insoluble in water”.

For `CC(C)OC(=O)CCC/C=C\C[C@@H]1[C@@H](/C=C/C(F)(F)COc2ccccc2)[C@H](O)C[C@@H]1O` [tafluprost], which Solubility in water is on record?
The Solubility in water was “almost insoluble in water”.

With `CCCCCCCC(=O)CC[C@@H]1[C@@H](C/C=C\CCCC(=O)OC(C)C)[C@@H](O)C[C@H]1O` [unoprostone isopropyl] as the compound, how does the Solubility in water read?
The Solubility in water was “almost insoluble in water”.
